Assay results as given in PubChem BioAssay AID1033 (Sanford-Burnham Center for Chemical Genomics, 2008).
Active and inactive are the calls of the source. No rule for the calls is given here.

These compounds were tested against Chaperone protein DnaK (Escherichia coli (strain K12)) (UniProt P0A6Y8) (assay: E. coli DnaK SBD ligand binding – biophysical, NMR, chaperone (AID 1033)). Conditions: Purified DnaK SBD.
Chaperone protein DnaK (Escherichia coli (strain K12)), sequence (P0A6Y8 whole entry, looked up): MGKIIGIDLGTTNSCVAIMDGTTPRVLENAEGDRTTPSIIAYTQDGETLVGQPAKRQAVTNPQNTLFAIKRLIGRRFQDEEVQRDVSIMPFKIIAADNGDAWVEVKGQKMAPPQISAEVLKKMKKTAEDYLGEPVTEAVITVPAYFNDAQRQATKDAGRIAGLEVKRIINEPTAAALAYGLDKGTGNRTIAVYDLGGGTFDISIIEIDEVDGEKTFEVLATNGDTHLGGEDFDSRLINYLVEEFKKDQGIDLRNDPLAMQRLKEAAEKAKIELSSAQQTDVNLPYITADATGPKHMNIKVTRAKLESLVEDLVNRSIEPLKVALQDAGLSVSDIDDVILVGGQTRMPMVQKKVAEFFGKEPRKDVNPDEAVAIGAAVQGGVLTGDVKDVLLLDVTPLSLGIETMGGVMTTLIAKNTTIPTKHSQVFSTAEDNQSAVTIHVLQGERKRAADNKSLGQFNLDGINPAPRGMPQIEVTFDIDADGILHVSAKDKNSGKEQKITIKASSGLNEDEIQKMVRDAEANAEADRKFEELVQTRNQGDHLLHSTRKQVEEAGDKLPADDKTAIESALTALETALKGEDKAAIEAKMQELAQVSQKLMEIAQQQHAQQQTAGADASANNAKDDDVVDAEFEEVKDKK
In the case of `COC(=O)C[C@H]1C(C)(C)C(=O)[C@@H]2CC3=C(CC[C@]4(C)C3=CC(=O)O[C@H]4c3ccoc3)C1(C)C2=O`, the Kd is reported as > 4 mM (inactive).
With `CC1(C)CN=C(Nc2nc3ccccc3s2)S1` the Kd was > 4 mM (inactive).
For `Fc1ccc(CN2CCCNCC2)cc1`, the Kd was > 4 mM (inactive).
`Cc1ccc(C)c(C(=O)NCc2ccncc2)c1` was tested, and the Kd was > 4 mM (inactive).
With `CC(=O)OCC(=O)[C@@]1(O)CCC2C3CC[C@@H]4C[C@H](OC(C)=O)CC[C@]4(C)C3C(=O)C[C@@]21C` (stereo partly specified) the Kd was > 4 mM (inactive).
`CC(CCC(=O)O)[C@H]1CCC2C3CC[C@@H]4CCCC[C@]4(C)C3CC[C@@]21C` (stereo partly specified) was tested, and the Kd was > 4 mM (inactive).
`COc1ccc(C(N)=O)cc1NC(C)=O` was tested, and the Kd was > 4 mM (inactive).
For `O=C(O)CNC(=O)c1ccccc1Cl`, the Kd was > 4 mM (inactive).
For `c1ccc(-c2noc(-c3cccnc3)n2)nc1`, the Kd was > 4 mM (inactive).
In the case of `C/C=C(/C)C(=O)O[C@H]1CC[C@@]2(C)[C@@H]3CC[C@H]4[C@]5(O)C[C@H](O)[C@@]6(O)[C@@H](CN7C[C@@H](C)CC[C@H]7[C@@]6(C)O)[C@]5(O)C[C@@]42OC13O`, the Kd is reported as > 4 mM (inactive).
In the case of `COC(=O)C1CCN(c2ccc(Cl)nn2)CC1`, the Kd is reported as > 4 mM (inactive).
With `CC(=O)NC(C)C12CC3CC(CC(C(=O)O)(C3)C1)C2` (stereo unspecified) the Kd was > 4 mM (inactive).
With `C=CCN1CC[C@]23c4c5ccc(O)c4OC2C(=O)CC[C@@]3(O)[C@H]1C5` (stereo partly specified) the Kd was > 4 mM (inactive).
For `NNc1ncnc2sccc12`, the Kd was > 4 mM (inactive).
With `Cc1c(F)cccc1NS(=O)(=O)c1ccccc1C#N` the Kd was > 4 mM (inactive).
For `O=c1[nH]cc(Nc2ccccc2)c(=O)[nH]1`, the Kd was > 4 mM (inactive).
`O=C(Nc1ccc2c(c1)OCO2)c1ccc(=O)[nH]n1` was tested, and the Kd was > 4 mM (inactive).
With `NC1=NC(=O)/C(=C\c2ccco2)S1` the Kd was > 4 mM (inactive).
With `CCOC(=O)C1C(C=C(C)C)C1(C)C` (stereo unspecified) the Kd was > 4 mM (inactive).
With `Cc1n[nH]c(=S)n(/N=C/c2cccs2)c1=O` the Kd was > 4 mM (inactive).
`NS(=O)(=O)c1ccccc1Cl` was tested, and the Kd was > 4 mM (inactive).
With `Nc1nnc(SCc2ccccc2Cl)s1` the Kd was > 4 mM (inactive).
With `Cn1nc(C(=O)Nc2cccnc2)cc1Cl` the Kd was > 4 mM (inactive).
With `O=C(O)CCC1=C2c3ccccc3CCN2C(=O)CC1` the Kd was > 4 mM (inactive).
In the case of `COC(=O)C1=C(C)N(Cc2ccco2)C(=O)C1`, the Kd is reported as > 4 mM (inactive).
With `OCC1CCCN2CCCCC12` (stereo unspecified) the Kd was > 4 mM (inactive).
In the case of `O=C(CSc1ccnc(=O)[nH]1)NCc1ccccc1`, the Kd is reported as > 4 mM (inactive).
For `NC(=O)CSc1ccc(-c2ccco2)nn1`, the Kd was > 4 mM (inactive).
In the case of `CC(=O)O[C@H]1CCC2(C)C3=C(CCC2C1(C)C)[C@@]1(C)CC[C@@H](C(C)CCC=C(C)C)[C@]1(C)CC3` (stereo partly specified), the Kd is reported as > 4 mM (inactive).
With `O=C(COc1ccccc1)N1CCc2ccccc2C1` the Kd was > 4 mM (inactive).
In the case of `O=C(Cc1cccs1)Nc1ccccn1`, the Kd is reported as > 4 mM (inactive).
With `O=C(O)c1csc(-c2cccnc2)n1` the Kd was > 4 mM (inactive).
`O=C(c1cccs1)N1CCCc2ccccc21` was tested, and the Kd was > 4 mM (inactive).
With `CN1CCN(S(=O)(=O)c2ccc(=O)[nH]c2)CC1` the Kd was > 4 mM (inactive).
`O=[N+]([O-])c1cccc(CN2CCC(O)CC2)c1` was tested, and the Kd was > 4 mM (inactive).
In the case of `CC1CC[C@]2(NC1)O[C@H]1CC3C4CC[C@H]5C[C@@H](O)CC[C@]5(C)C4CC[C@]3(C)[C@H]1[C@@H]2C` (stereo partly specified), the Kd is reported as > 4 mM (inactive).
With `CCSc1n[nH]c(=O)[nH]c1=O` the Kd was > 4 mM (inactive).
With `COc1cc(C(C)=O)cc(OC)c1O` the Kd was > 4 mM (inactive).
For `O=C(NCO)c1ccc([N+](=O)[O-])cc1`, the Kd was > 4 mM (inactive).
In the case of `Cc1cc(NC(=O)c2cccc(S(C)(=O)=O)c2)no1`, the Kd is reported as > 4 mM (inactive).
In the case of `NC12CC3CC(C1)CC(C(=O)O)(C3)C2`, the Kd is reported as > 4 mM (inactive).
`COc1ccc(C2=CC(=O)C=CC2=O)cc1` was tested, and the Kd was > 4 mM (inactive).
In the case of `OC(CCl)c1ccc(-n2cncn2)cc1` (stereo unspecified), the Kd is reported as > 4 mM (inactive).
In the case of `NCc1ccc(-n2cccn2)cc1`, the Kd is reported as > 4 mM (inactive).
In the case of `Cc1cc(C)nc(/N=C(/N)N2CCOCC2)n1`, the Kd is reported as > 4 mM (inactive).
With `CC[C@H]1CN2CCC1C[C@@H]2[C@@H](O)c1ccnc2ccc(OC)cc12` (stereo partly specified) the Kd was > 4 mM (inactive).
`COC(=O)C[C@H]1C2(C)CC34OC5(C)O[C@@]6([C@H](OC(C)=O)C(OC(C)=O)[C@]7(C)C(/C(=C(/O)C(C)C)C(=O)O[C@H]7c7ccoc7)[C@@]6(O5)[C@H](OC(C)=O)[C@@]3(O)C2OC(=O)C(C)C)[C@]14C` (stereo partly specified) was tested, and the Kd was > 4 mM (inactive).
For `NCc1cccc(-n2cccc2)c1`, the Kd was > 4 mM (inactive).
With `CN1CCc2c(sc(N)c2C#N)C1` the Kd was > 4 mM (inactive).
With `CCn1cnc2cc([N+](=O)[O-])ccc2c1=O` the Kd was > 4 mM (inactive).
With `OCc1cc(F)cc2c1OCOC2` the Kd was > 4 mM (inactive).
For `NC1=NC(=O)CC(C(=O)Nc2ccccc2)S1` (stereo unspecified), the Kd was > 4 mM (inactive).
`Cc1nc2nc(COc3ccccc3)nn2c(C)c1Cl` was tested, and the Kd was > 4 mM (inactive).
`CC1=NN(c2ccc(N)cc2)C(=O)C1` was tested, and the Kd was > 4 mM (inactive).
For `COc1ccccc1NC(=O)c1ccc(C)s1`, the Kd was > 4 mM (inactive).
In the case of `FC(F)(F)c1cc(-c2ccco2)nc(N2CCOCC2)n1`, the Kd is reported as > 4 mM (inactive).
`Nc1nc(-c2ccccc2)ns1` was tested, and the Kd was > 4 mM (inactive).
With `CN(C)S(=O)(=O)c1cccc(N)c1` the Kd was > 4 mM (inactive).
In the case of `CCc1cc2c(SCC(=O)O)ncnc2s1`, the Kd is reported as > 4 mM (inactive).
For `CCOc1ccc(Cl)cc1S(=O)(=O)N1CCCC1`, the Kd was > 4 mM (inactive).
For `CC(=O)Nc1ccc2c(c1)CCCC2=O`, the Kd was > 4 mM (inactive).
For `C(=Nn1cnnc1)c1ccccc1`, the Kd was > 4 mM (inactive).
For `Cc1ccc(C(=O)Nc2nnc(-c3ccncc3)s2)o1`, the Kd was > 4 mM (inactive).
`C=C1CSc2nc(=O)c3c(C)c(C)sc3n21` was tested, and the Kd was > 4 mM (inactive).
`NC(=O)c1oc2ccccc2c1N` was tested, and the Kd was > 4 mM (inactive).
For `Nc1ccc(NS(=O)(=O)c2ccc(N)cc2)cc1`, the Kd was > 4 mM (inactive).
With `N[C@@H](Cc1ccc(O)c(O)c1)C(=O)O` the Kd was > 4 mM (inactive).
In the case of `COc1ccc(-c2cn[nH]c2N)c(OC)c1`, the Kd is reported as > 4 mM (inactive).
For `CC(=O)O[C@@H]1CC2C(C)(C)C=CC(=O)[C@]2(C)C2CC[C@@]3(C)[C@H](c4ccoc4)OC(=O)C4OC43[C@@]21C` (stereo partly specified), the Kd was > 4 mM (inactive).
In the case of `COc1cc(OC)c2c(OC)c(-c3ccc4c(c3)OCO4)c(=O)oc2c1`, the Kd is reported as > 4 mM (inactive).
For `CN(Cc1nc2ccccc2n1C)S(C)(=O)=O`, the Kd was > 4 mM (inactive).
`O=C(CCc1n[nH]c(=O)[nH]c1=O)NCc1ccccc1` was tested, and the Kd was > 4 mM (inactive).
With `O=C(NC1=NCCS1)c1ccc([N+](=O)[O-])cc1Cl` the Kd was > 4 mM (inactive).
`Cn1c(=O)n(CC(=O)Nc2cccnc2)c2ccccc21` was tested, and the Kd was > 4 mM (inactive).
For `COC(=O)CC1C(C)(C)C(OC(C)=O)[C@@H]2[C@@H](OC(C)=O)[C@]34O[C@@]2(O)[C@]1(C)C3CC[C@]1(C)C4=CC(=O)O[C@H]1c1ccoc1` (stereo partly specified), the Kd was > 4 mM (inactive).
For `O=C(O)Cn1nc(-c2ccccc2)c2ccccc2c1=O`, the Kd was > 4 mM (inactive).
In the case of `N=Nc1c(O)[nH]c2ccccc12`, the Kd is reported as > 4 mM (inactive).
`CN1CCC(N2CCCC(C(N)=O)C2)CC1` (stereo unspecified) was tested, and the Kd was > 4 mM (inactive).
For `CC(=O)N(C)Cc1nc2ccccc2n1C`, the Kd was > 4 mM (inactive).
With `O=C(CSc1ccccc1)N1CCC2(CC1)OCCO2` the Kd was > 4 mM (inactive).
For `Cc1ncc(C(=O)O)c(-c2ccccc2)n1`, the Kd was > 4 mM (inactive).
`Nc1ccc2c(c1)COc1ccccc1O2` was tested, and the Kd was > 4 mM (inactive).
For `O=C(Cc1cccs1)Nc1nncs1`, the Kd was > 4 mM (inactive).
In the case of `COc1ccc(N=C2NC(=O)CS2)cc1`, the Kd is reported as > 4 mM (inactive).
In the case of `OCc1ccccc1O[C@@H]1O[C@H](CO)[C@@H](O)[C@H](O)[C@H]1O`, the Kd is reported as > 4 mM (inactive).
`Cc1nnc(N2CCc3ccccc3C2)[nH]c1=O` was tested, and the Kd was > 4 mM (inactive).
`COc1c(-c2ccccc2)oc2c(OC)cccc2c1=O` was tested, and the Kd was > 4 mM (inactive).
For `COCC(=O)/C=C1\Sc2ccccc2N1C`, the Kd was > 4 mM (inactive).
For `COC(=O)C1CSCC1=O` (stereo unspecified), the Kd was > 4 mM (inactive).
In the case of `CS(=O)(=O)Cc1ccccc1`, the Kd is reported as > 4 mM (inactive).
In the case of `Cc1ccc(C(=O)Nc2ccncc2)o1`, the Kd is reported as > 4 mM (inactive).
In the case of `Cc1ccc(C(=O)Nc2c[nH]c(=O)[nH]c2=O)cc1`, the Kd is reported as > 4 mM (inactive).
In the case of `NC(CSCSCC(N)C(=O)O)C(=O)O` (stereo unspecified), the Kd is reported as > 4 mM (inactive).
`NS(=O)(=O)c1ccc(F)cc1` was tested, and the Kd was > 4 mM (inactive).
`CCOC(=O)Nc1ccc2c(C)cc(=O)oc2c1` was tested, and the Kd was > 4 mM (inactive).
With `COc1cc2c(c(OC)c1OC)-c1ccc(O)c(=O)cc1[C@@H](NC(C)=O)CC2` the Kd was > 4 mM (inactive).
For `CN1CCC[C@H]1c1cccnc1`, the Kd was > 4 mM (inactive).
`O=S1(=O)CCC(NC(=S)N2CCCCC2)C1` (stereo unspecified) was tested, and the Kd was > 4 mM (inactive).
With `O=C(O)C12CC3CC(CC(O)(C3)C1)C2` the Kd was > 4 mM (inactive).
With `NCC(O)c1ccc(O)cc1` (stereo unspecified) the Kd was > 4 mM (inactive).
In the case of `CN1C(=O)/C(=C\c2ccc[nH]2)SC1=S`, the Kd is reported as > 4 mM (inactive).
For `CCNC(CC(=O)Nc1cccc([N+](=O)[O-])c1)C(=O)O` (stereo unspecified), the Kd was > 4 mM (inactive).
For `CCOC(=O)c1nc2ccccc2c(=O)n1N`, the Kd was > 4 mM (inactive).
In the case of `CC12CN([N+](=O)[O-])C3(C(N)=O)CC1CCC23C` (stereo unspecified), the Kd is reported as > 4 mM (inactive).
With `CC(=O)N1CCN(c2ccc(N)cc2)CC1` the Kd was > 4 mM (inactive).
In the case of `Nc1cccc2nonc12`, the Kd is reported as > 4 mM (inactive).
`O=C(Nc1ccccc1)C(=O)NC1CC1` was tested, and the Kd was > 4 mM (inactive).
For `NCc1cccc2c1OCCO2`, the Kd was > 4 mM (inactive).
With `Cc1cc(C(F)(F)F)nn1CC(N)=O` the Kd was > 4 mM (inactive).
For `N#Cc1cccc(Cn2nnc(-c3ccccc3)n2)c1`, the Kd was > 4 mM (inactive).
With `c1ccc(-c2csc(Nc3cccnc3)n2)nc1` the Kd was > 4 mM (inactive).
For `C=C[C@H]1CN2CC[C@H]1C[C@@H]2[C@H](O)c1ccnc2ccccc12`, the Kd was > 4 mM (inactive).
With `CC(=O)NN1C(=O)c2cccc3cccc(c23)C1=O` the Kd was > 4 mM (inactive).
For `O=C(O)c1ccc2nccnc2c1`, the Kd was > 4 mM (inactive).
For `CCOC(=O)c1c(C)nc2ncccn12`, the Kd was > 4 mM (inactive).
In the case of `O=C(Nc1cnccn1)c1cccnc1`, the Kd is reported as > 4 mM (inactive).
